Source: article PMC8868518, “Exploring Titanium(IV) Complexes as Potential Antimicrobial Compounds” (Antibiotics, 2022)
Where a name gives a salt, the structure may show the parent alone. Read-outs that look alike come from different tables or passages of the source.

Tests used:
[1] = system: HEK293 ATCC CRL-1573 human embryonic kidney cells; test: CO-ADD cytotoxicity assay (resazurin); assay type: cell-based; conditions: at the maximum concentration tested
Description: The compounds were used as received by the CO-ADD. For the screenings, most compounds were dissolved to a stock concentration of 10 mg/mL in DMSO. K2[Ti(Citrate)3], Na3Citrate, and K2[TiO(Oxalate)2] were dissolved in warm water. [Cu(Deferasirox)(H2O)]2 was dissolved in pyridine after its solubility was determined to be excellent in pyridine due to coordination of the solvent to the metal producing [Cu(Deferasirox)(pyridine)]2 in situ. […] Each sample concentration was prepared in 384-well plates, non-binding surface plate (NBS; Corning 3640) for each bacterial/fungal strain, tissue-culture treated (TC-treated; Corning 3712/3764), black for mammalian cell types and polypropylene 384-well (PP; […] All sample preparation was conducted using liquid handling robots. HEK293 ATCC CRL-1573 human embryonic kidney cells were counted manually in a Neubauer hemocytometer and added to compound-containing plates (384-well plates, tissue culture-treated (TC); […] Life Technologies 11995-073) with 10% FBS (GE SH30084.03).

[2] = system: A. baumannii (ATCC 19606); test: CO-ADD antibacterial assay, growth inhibition (OD600); assay type: cell-based, Acinetobacter baumannii; conditions: up to 32 μg/mL
Description: (§1) Dry compounds ranging from 1–2 mg were weighed into properly labeled Eppendorf tubes and sealed with parafilm. The compounds were used as received by the CO-ADD. For the screenings, most compounds were dissolved to a stock concentration of 10 mg/mL in DMSO. K2[Ti(Citrate)3], Na3Citrate, and K2[TiO(Oxalate)2] were dissolved in warm water. […] Samples were diluted in water to a final testing concentration of 32 µg/mL while keeping the final co-solvent concentration to a maximum of 0.5%. Where applicable, compounds were serially diluted 1:2 fold eight times. Each sample concentration was prepared in 384-well plates, non-binding surface plate (NBS; Corning 3640) for each bacterial/fungal strain, tissue-culture treated (TC-treated; Corning 3712/3764), black for mammalian cell types and polypropylene 384-well (PP; Corning 3657) for hemolysis assays, all in duplicate (n = 2), and keeping the final DMSO concentration to a maximum of 0.5%. All sample preparation was conducted using liquid handling robots.
(§2) For the bacterial assays, four Gram-negative bacteria (E. coli (ATCC 25922, Manassas, VA, USA); K. pneumoniae (ATCC 700603), A. baumannii; (ATCC 19606), and P. aeruginosa (ATCC 27853) and the Gram-positive bacteria (S. aureus MRSA (ATCC 43300) were used. Each strain was cultured in cation-adjusted Mueller Hinton broth (CAMHB; Bacto Laboratories 212322, Mount Pritchard, Australia) at 37 °C overnight. A sample of each culture was then diluted 40-fold in fresh CAMHB and incubated at 37 °C for 1.5–3 h. The resultant mid-log phase cultures were diluted with CAMHB (CFU/mL measured by OD600), then added to each well of the compound-containing plates (384-well non-binding surface (NBS) plates; Corning CLS3640, Millipore Sigma, Burlington, MA, USA), giving a cell density of 5 × 10^5 CFU/mL and a total volume of 50 µL. Plates were covered and incubated at 37 °C for 18 h without shaking. Inhibition of bacterial growth was determined by measuring absorbance at 600 nm (OD600) with a Tecan M1000 Pro monochromator plate reader, using media-only as negative control and bacteria without inhibitors as a positive control. […] Colistin sulfate (Sigma C4461) and vancomycin HCl (Sigma 861987) were used as internal controls on each plate for Gram-negative and Gram-positive bacteria, respectively.

E. coli (ATCC 25922) = test: as above; assay type: cell-based, Escherichia coli; conditions: up to 32 μg/mL
Description: as §1, §2

[3] = system: S. aureus MRSA (ATCC 43300); test: as above; assay type: cell-based, Staphylococcus aureus
Description: as §1, §2

[4] = system: C. neoformans (ATCC 208821); test: CO-ADD antifungal assay, growth inhibition (resazurin, OD600-570); assay type: cell-based, Cryptococcus neoformans; conditions: up to 32 μg/mL
Description: (§3) The compounds were used as received by the CO-ADD. For the screenings, most compounds were dissolved to a stock concentration of 10 mg/mL in DMSO. K2[Ti(Citrate)3], Na3Citrate, and K2[TiO(Oxalate)2] were dissolved in warm water. [Cu(Deferasirox)(H2O)]2 was dissolved in pyridine after its solubility was determined to be excellent in pyridine due to coordination of the solvent to the metal producing [Cu(Deferasirox)(pyridine)]2 in situ. […] Each sample concentration was prepared in 384-well plates, non-binding surface plate (NBS; Corning 3640) for each bacterial/fungal strain, tissue-culture treated (TC-treated; Corning 3712/3764), black for mammalian cell types and polypropylene 384-well (PP; […] All sample preparation was conducted using liquid handling robots. For the fungal assays, the fungi (C. albicans (ATCC 90028) and C. neoformans) (ATCC 208821) were used. Both fungi (yeast) strains were cultured for 3 days on Yeast Extract-Peptone Dextrose (YPD; Becton Dickinson 242720, Thermo Fisher Scientific, Waltham, MA, USA) agar at 30 °C. A yeast suspension of 1 × 10^6 to 5 × 10^6 CFU/mL (as determined by OD530) was prepared from five colonies from the agar plates, subsequently diluted with Yeast Nitrogen Base media (YNB; Becton Dickinson 233520, Thermo Fisher Scientific, Waltham, MA, USA), and added to each well of the compound-containing plates (384-well plates, NBS; Corning CLS3640) giving a final cell density of 2.5 × 10^3 CFU/mL and a total volume of 50 μL. Plates were covered and incubated at 35 °C for 36 h without shaking. […] Sigma R7017) and incubation at 35 °C for 2 h, using media-only as a negative control and fungi without inhibitors as a positive control. […] Fluconazole (Sigma F8929) was used as an internal control on each plate for both strains.

C. albicans (ATCC 90028) = test: CO-ADD antifungal assay, growth inhibition (OD630); assay type: cell-based, Candida albicans; conditions: up to 32 μg/mL
Description: as §3

[5] = system: P. aeruginosa (ATCC 27853); test: CO-ADD antibacterial assay, growth inhibition (OD600); assay type: cell-based, Pseudomonas aeruginosa; conditions: up to 32 μg/mL
Description: as §1, §2

[6] = system: K. pneumoniae (ATCC 700603); test: as above; assay type: cell-based, Klebsiella pneumoniae; conditions: up to 32 μg/mL
Description: as §1, §2

MRC-5 cells [7] = conditions: cited from earlier work
MRC-5 cells [8] = test: MRC-5 cell viability, dose-response treatment, MTT assay; assay type: cell-based, human; conditions: MRC-5 cells, MTT, 72 h, pH 7.4, n = 6, this work
Description: A thawed stock of MRC-5 cells was washed with 1X PBS and resuspended in phenol red DMEM media (supplemented with 10% FBS and 1% of penicillin-streptomycin) and then seeded in a 100 mm × 20 mm (complete, O.D. x H) petri dish and grown in a 5% (v/v) CO2 humidified atmosphere at 37 °C. At least three passages were performed to ensure the integrity of the cells. After this point, cells were collected, thoroughly washed with 1X PBS, and then resuspended in phenol red-free DMEM (supplemented with 10% FBS, 1% Streptomycin/Penicillin, and 2.4 mM L-glutamine) at a 2.0 × 10^5 cells/mL concentration. Approximately 100 µL of the cell solution was seeded into wells of several 96-well plates to begin the MTT assay, which was performed in the 5% (v/v) CO2 humidified atmosphere at 37 °C. At least one lane of wells in each plate was supplied media without cells as a control. […] Most of the compounds were dissolved in 1X PBS buffer at pH 7.4. […] Titanocene dichloride was prepared as a fresh stock solution in DMSO and then diluted in 0.1 M NaCl (aq) instead of 1X PBS (to minimize hydrolysis induced precipitation) to the desired concentration while maintaining a constant 1% (v/v) DMSO background (0.5% DMSO after mixing with the well media). A control of cells treated with media containing 1% (v/v) DMSO was included in the study. The titanocene solutions were used within an hour of preparation in the final cell solution. […] At 3 h before a total of 72 h of incubation with the compounds, the cells were treated with 25 µL of 9 mg/mL MTT prepared in 1X PBS and sterile-filtered. Upon completion of the three hours, 50 µL of 10% (w/v) SDS (prepared in 0.1 M Tris buffer at pH 11) was added to solubilize the purple formazan product crystals and left overnight in the incubator. Control wells in the plates consisted of: (1) Untreated cells + MTT as the measure of 100% viable cell growth in the media and (2) Media with no cells + MTT as the measure of zero cells in the media. Two sets of compounds could be tested per plate. The plates were read at the wavelength of 570 nm (absorbance of the formazan product at pH 10.0) and 800 nm (background control) using a Tecan plate reader. The absorbance of all wells was compared to the absorbance of the untreated cells with the MTT set as the 100% viable cell standard and the absorbance of the zero cell control set as the 0% viable cell standard. […] Nonlinear regression in Origin 8.5 was utilized to fit the growth curves using the pharmacology dose–response equation to determine the half-maximal inhibitory concentration (IC50) and the corresponding standard deviation. All samples were tested six times.

[9] = cited from earlier work
[10] = predicted or measured MIC, ≥75% growth inhibition
[11] = predicted or measured MIC, lowest concentration with ≥75% growth inhibition, 0.25-32 μg/mL, 18 h
[12] = predicted or measured MIC, ≥75% growth inhibition, 36 h

Molecule	MIC A. baumannii [2, 10] [µg/mL]	Dmax A. baumannii, maximum % inhibition [2] [%]	MIC E. coli (E. coli (ATCC 25922); [10]) [µg/mL]	Dmax E. coli, maximum % inhibition (E. coli (ATCC 25922)) [%]	MIC S. aureus (MRSA) [3, 11] [µg/mL]	Dmax S. aureus (MRSA), maximum % inhibition ([3]; up to 32 μg/mL) [%]	MIC C. neoformans [4, 12] [µg/mL]	Dmax C. neoformans, maximum % inhibition [4] [%]	MIC C. albicans (C. albicans (ATCC 90028); [12]) [µg/mL]	Dmax C. albicans, maximum % inhibition (C. albicans (ATCC 90028)) [%]	MIC P. aeruginosa [5, 10] [µg/mL]	Dmax P. aeruginosa, maximum % inhibition [5] [%]	MIC K. pneumoniae [6, 10] [µg/mL]	Dmax K. pneumoniae, maximum % inhibition [6] [%]	further results
O=C(O)CN(CCN(CC(=O)O)Cc1ccccc1O)Cc1ccccc1O [Compound 5, N,N′-di(o-hydroxybenzyl)ethylenediamine-N,N′-diacetic acid monohydrochloride hydrate, reference compound]	–	–	–	–	–	–	–	–	–	–	–	–	–	–	inhibition of HEK293 cell proliferation [1]: ~50%; MIC ([2]; Acinetobacter baumannii, ATCC19606, predicted or measured MIC, ≥75% growth inhibition): > 32 µg/mL; Dmax ([2]; Acinetobacter baumannii, ATCC19606, read-out: Dmax A. baumannii, maximum % inhibition): 68.3%; MIC (E. coli (ATCC 25922); Escherichia coli, ATCC25922, predicted or measured MIC, ≥75% growth inhibition): > 32 µg/mL; Dmax (E. coli (ATCC 25922); Escherichia coli, ATCC25922, read-out: Dmax E. coli, maximum % inhibition): 51.6%; MIC ([3]; Staphylococcus aureus, predicted or measured MIC, lowest concentration with ≥75% growth inhibition, 0.25-32 μg/mL, 18 h): > 32 µg/mL; Dmax ([3]; Staphylococcus aureus, up to 32 μg/mL, read-out: Dmax S. aureus (MRSA), maximum % inhibition): 24.3%; MIC ([4]; Cryptococcus neoformans, ATCC208821, predicted or measured MIC, ≥75% growth inhibition, 36 h): > 32 µg/mL; Dmax ([4]; Cryptococcus neoformans, ATCC208821, read-out: Dmax C. neoformans, maximum % inhibition): -17.5%; MIC (C. albicans (ATCC 90028); Candida albicans, ATCC90028, predicted or measured MIC, ≥75% growth inhibition, 36 h): > 32 µg/mL; Dmax (C. albicans (ATCC 90028); Candida albicans, ATCC90028, read-out: Dmax C. albicans, maximum % inhibition): 3.5%; MIC ([5]; Pseudomonas aeruginosa, ATCC27853, predicted or measured MIC, ≥75% growth inhibition): > 32 µg/mL; Dmax ([5]; Pseudomonas aeruginosa, ATCC27853, read-out: Dmax P. aeruginosa, maximum % inhibition): 69%; MIC ([6]; Klebsiella pneumoniae, ATCC700603, predicted or measured MIC, ≥75% growth inhibition): > 32 µg/mL; Dmax ([6]; Klebsiella pneumoniae, ATCC700603, read-out: Dmax K. pneumoniae, maximum % inhibition): 52.9%; IC50 ± SD (µg/mL) (MRC-5 cells [7]): >>44.3 µg/mL; IC50 (MRC-5 cells [7]; read-out: IC50 ± SD): > 100 µM
[Cl-].[Cl-].[Ti+4].c1cc[cH-]c1.c1cc[cH-]c1 [Compound 13, Bis(cyclopentadienyl)titanium(IV) dichloride, reference compound]	>32	15.78	>32	23.76	>32	51.55	>32	6.5	>32	16.15	>32	16.01	>32	16.65	IC50 ± SD (µg/mL) (MRC-5 cells [8]): >>24.9 µg/mL; IC50 (MRC-5 cells [8]; read-out: IC50 ± SD): > 100 µM; solution stability (in words) ([9]; pH 7.4): extremely hydrolysis prone
Ti(BHPT)2 [Compound 9]	>32	1.55	>32	−0.56	>32	7.82	>32	−1.7	>32	4.27	>32	10.27	>32	6.35	activity against MRSA (in words) ([3]; CO-ADD screen, 32 μg/mL): inactive; solution stability (in words) ([9]; pH 4): highly stable in solution; IC50 (MRC-5 cells [7]; approximated relative IC50, compound inhibits proliferation at a maximum of 25%, read-out: IC50 (µM), approximated relative IC50): ~2.4 µM; IC50 (µg/mL), approximated relative IC50 (MRC-5 cells [7]; approximated relative IC50, compound inhibits proliferation at a maximum of 25%): ~1.5 µg/mL
